Source: ChEMBL document CHEMBL5518232, “Discovery of New Tricyclic Oxime Sampangine Derivatives as Potent Antifungal Agents for the Treatment of Cryptococcosis and Candidiasis” (J Med Chem, 2024)
≈ marks a conversion by molar mass, not a printed value. Each block holds one compound with its values, some of them ahead of it. Calls of active or inactive are those of the source. No cut-off for these calls is given here.

Experiments:
[1] = tested on: Candida albicans; experiment: Antifungal activity against Candida albicans SC5314 assessed as reduction in fungal growth incubated for 48 hrs by liquid based microdilution method; type: functional
[2] = tested on: Candida albicans; experiment: Synergistic antifungal activity against Candida albicans 0304103 assessed as inhibition of fungal growth incubated for 48 hrs in presence of fluconazole by checkerboard microdilution assay; type: functional
[3] = tested on: Nakaseomyces glabratus; experiment: Antifungal activity against Candida glabrata 9073 assessed as reduction in fungal growth incubated for 48 hrs by liquid based microdilution method; type: functional
[4] = tested on: Candida albicans; experiment: Synergistic antifungal activity against Candida albicans 0304103 assessed as fractional inhibitory concentration index by measuring ratio of MIC80 for compound and synergetic / MIC80 for compound alone + MIC80 for fluconazole synergetic / MIC80 for fluconazole alone; type: functional
[5] = tested on: Cryptococcus neoformans; experiment: Antifungal activity against Cryptococcus neoformans H99 assessed as reduction in fungal growth incubated for 72 hrs by liquid based microdilution method; type: functional
[6] = tested on: Candida tropicalis; experiment: Antifungal activity against Candida tropicalis 10186 assessed as reduction in fungal growth incubated for 48 hrs by liquid based microdilution method; type: functional
[7] = tested on: Candida albicans; experiment: Antifungal activity against Candida albicans 0304103 assessed as reduction in fungal growth incubated for 48 hrs by liquid based microdilution method; type: functional
[8] = Antifungal activity against Cryptococcus gattii VGI ATCC 14116 assessed as reduction in fungal growth incubated for 72 hrs by liquid based microdilution method; type: functional
[9] = tested on: Cryptococcus neoformans; experiment: Antifungal activity against Cryptococcus neoformans ATCC 34877 assessed as reduction in fungal growth incubated for 72 hrs by liquid based microdilution method; type: functional
[10] = Effective permeability of the compound across blood brain barrier incubated for 12 hrs by PAMPA assay; type: ADME; settings: read-out: Peff
[11] = tested on: Candida albicans; experiment: In vivo antifungal activity against Candida albicans SC5314 infected in […] ICR mouse model assessed as reduction in fungal burden in kidney at 10 mg/kg, ip measured for 5 days in presence of fluconazole; type: functional; settings: time 5 day
[12] = tested on: Candida albicans; experiment: Inhibition of biofilm formation in Candida albicans 0304103 at 0.125 ug/ml incubated for 24 hrs by microplate based analysis relative to control; type: functional
[13] = tested on: Candida albicans; experiment: Antifungal activity against Candida albicans 0304103 assessed as downregulation of RLM1 expression at 8 ug/ml incubated for 24 hrs in presence of fluconazole by RT-PCR analysis; type: functional, organism-based; settings: dose 8.0 µg/ml
[14] = tested on: Candida albicans; experiment: Antifungal activity against Candida albicans 0304103 assessed as downregulation of ERG11 expression at 16 ug/ml incubated for 24 hrs in presence of fluconazole by RT-PCR analysis; type: functional, organism-based; settings: dose 16.0 µg/ml
[15] = tested on: Cryptococcus neoformans; experiment: Inhibition of biofilm formation in Cryptococcus neoformans H99 at 0.063 ug/ml incubated for 24 hrs by microplate based analysis relative to control; type: functional
[16] = tested on: Cryptococcus neoformans; experiment: Antifungal activity against Cryptococcus neoformans H99 assessed as log reduction in fungal growth at 2 ug/ml incubated for 72 hrs by time growth curve assay (reference value: 7.65 log10CFU/ml); type: functional; settings: dose 2 µg/ml
[17] = tested on: Cryptococcus neoformans; experiment: Antifungal activity against Cryptococcus neoformans H99 assessed as inhibition of fungal growth incubated for 72 hrs by time growth curve assay; type: functional, organism-based; settings: dose 0.13-2 µg/ml
[18] = tested on: Pichia kudriavzevii; experiment: Synergistic antifungal activity against Candida krusei 10153 assessed as inhibition of fungal growth incubated for 48 hrs in presence of fluconazole by checkerboard microdilution assay; type: functional, organism-based
[19] = tested on: Candida albicans; experiment: Antifungal activity against Candida albicans 0304103 assessed as log reduction in fungal growth at 8 ug/ml incubated for 48 hrs by time growth curve assay (reference value: 7.38 log10CFU/ml); type: functional; settings: dose 8 µg/ml
[20] = tested on: Candida parapsilosis; experiment: Synergistic antifungal activity against Candida parapsilosis 20090 assessed as inhibition of fungal growth incubated for 48 hrs in presence of fluconazole by checkerboard microdilution assay; type: functional, organism-based
[21] = tested on: Candida albicans; experiment: Antifungal activity against Candida albicans 0304103 assessed as downregulation of CDR1 expression at 16 ug/ml incubated for 24 hrs in presence of fluconazole by RT-PCR analysis; type: functional, organism-based; settings: dose 16.0 µg/ml
[22] = tested on: Candida albicans; experiment: Antifungal activity against Candida albicans 0304103 assessed as inhibition of filamentation at 2 ug/ml incubated for 3 hrs by inverted cell microscope based analysis; type: functional, organism-based; settings: dose 2.0 µg/ml
[23] = tested on: Candida albicans; experiment: Antifungal activity against Candida albicans 0304103 assessed as reversal of ERG11 expression by measuring fold change at 16 ug/ml incubated for 24 hrs in presence of fluconazole by RT-PCR analysis (reference value: 8.8); type: functional; settings: dose 16 µg/ml
[24] = tested on: Candida albicans; experiment: In vivo antifungal activity against Candida albicans 0304103 infected in […] ICR mouse model assessed as reduction in fungal burden in kidney at 5 mg/kg, ip measured for 5 days in presence of fluconazole (reference value: 7.37 log10CFU/g); type: functional; settings: time 5 day
[25] = tested on: Candida albicans; experiment: Antifungal activity against Candida albicans 0304103 assessed as downregulation of GCA2 expression at 8 ug/ml incubated for 24 hrs in presence of fluconazole by RT-PCR analysis; type: functional, organism-based; settings: dose 8.0 µg/ml
[26] = tested on: [Candida] auris; experiment: Synergistic antifungal activity against Candida auris 0029 assessed as inhibition of fungal growth incubated for 48 hrs in presence of fluconazole by checkerboard microdilution assay; type: functional, organism-based; settings: Candidozyma auris
[27] = tested on: Candida albicans; experiment: In vivo antifungal activity against Candida albicans 0304103 infected in […] ICR mouse model assessed as reduction in fungal burden in kidney at 5 mg/kg, ip measured for 5 days (reference value: 7.37 log10CFU/g); type: functional; settings: time 5 day
[28] = tested on: Candida tropicalis; experiment: Synergistic antifungal activity against Candida tropicalis 10186 assessed as inhibition of fungal growth incubated for 48 hrs in presence of fluconazole by checkerboard microdilution assay; type: functional, organism-based
[29] = tested on: Cryptococcus neoformans; experiment: Antifungal activity against Cryptococcus neoformans H99 assessed as inhibition of capsule growth at 0.063 to 2 ug/ml measured after 24 hrs by laser confocal microscopy based analysis; type: functional, organism-based; settings: dose 0.063-2 µg/ml
[30] = tested on: Cryptococcus neoformans; experiment: In vivo antifungal activity against Cryptococcus neoformans H99 infected in cryptococcal meningitis ICR mouse model assessed as reduction in fungal burden in brain at 5 mg/kg, ip measured for 5 days (reference value: 8.18 log10CFU/g); type: functional; settings: time 5 day
[31] = tested on: Candida albicans; experiment: Antifungal activity against Candida albicans 0304103 assessed as downregulation of GCA1 expression at 8 ug/ml incubated for 24 hrs in presence of fluconazole by RT-PCR analysis; type: functional, organism-based; settings: dose 8.0 µg/ml
[32] = tested on: Clavispora lusitaniae; experiment: Synergistic antifungal activity against Candida lusitaniae 9150 assessed as inhibition of fungal growth incubated for 48 hrs in presence of fluconazole by checkerboard microdilution assay; type: functional, organism-based
[33] = tested on: Candida albicans; experiment: In vivo antifungal activity against Candida albicans SC5314 infected in […] ICR mouse model assessed as reduction in fungal burden in kidney at 10 mg/kg, ip measured for 5 days; type: functional, organism-based; settings: time 5.0 day
[34] = tested on: Candida albicans; experiment: Inhibition of biofilm formation in Candida albicans 0304103 at 2 ug/ml incubated for 24 hrs in presence of fluconazole by microplate based analysis relative to control; type: functional
[35] = tested on: Candida albicans; experiment: Antifungal activity against Candida albicans 0304103 assessed as downregulation of APH5 expression at 8 ug/ml incubated for 24 hrs in presence of fluconazole by RT-PCR analysis; type: functional, organism-based; settings: dose 8.0 µg/ml
[36] = tested on: Candida albicans; experiment: Antifungal activity against Candida albicans 0304103 assessed as downregulation of TEC1 expression at 8 ug/ml incubated for 24 hrs in presence of fluconazole by RT-PCR analysis; type: functional, organism-based; settings: dose 8.0 µg/ml
[37] = tested on: Candida albicans; experiment: Antifungal activity against Candida albicans 0304103 assessed as inhibition of fungal growth at 32 ug/ml incubated for 72 hrs by time growth curve assay; type: functional, organism-based; settings: dose 32.0 µg/ml
[38] = tested on: Candida albicans; experiment: Antifungal activity against Candida albicans 0304103 assessed as inhibition of fungal growth at 8 ug/ml incubated for 48 hrs in presence of fluconazole by time growth curve assay; type: functional, organism-based; settings: dose 8.0 µg/ml
[39] = tested on: Candida albicans; experiment: Inhibition of biofilm formation in Candida albicans 0304103 at 2 ug/ml incubated for 24 hrs by microplate based analysis relative to control; type: functional
[40] = tested on: Cryptococcus neoformans; experiment: Antifungal activity against Cryptococcus neoformans H99 assessed as inhibition of capsule growth 2 ug/ml measured after 24 hrs by laser confocal microscopy based analysis relative to control; type: functional; design: scale not given: the % may be the effect or the level left; settings: dose 2 µg/ml
[41] = tested on: Cryptococcus neoformans; experiment: Antifungal activity against Cryptococcus neoformans assessed as reduction in fungal growth incubated for 24 hrs by broth microdilution method; type: functional
[42] = tested on: Candida albicans; experiment: Antifungal activity against Candida albicans assessed as reduction in fungal growth incubated for 24 hrs by broth microdilution method; type: functional

MIC80 [1]: > 64 µg/mL
MIC80 [2]: 2 µg/mL
MIC80 [3]: > 64 µg/mL
MIC80 [5]: > 64 µg/mL
MIC80 [6]: > 64 µg/mL
MIC80 [7]: > 64 µg/mL
Compound: Cc1noc2c1C(=O)c1sccc1/C2=N/OC(C)C
fractional inhibitory concentration index (FICI) [4]: 0.063

MIC80 [1]: > 64 µg/mL
MIC80 [2]: 2 µg/mL
MIC80 [3]: > 64 µg/mL
MIC80 [8]: 4 µg/mL (≈ 15.3 µM)
MIC80 [5]: 0.13 µg/mL (≈ 0.496 µM)
MIC80 [6]: > 64 µg/mL
MIC80 [7]: > 64 µg/mL
MIC80 [9]: 2 µg/mL (≈ 7.63 µM)
Compound: CCO/N=C1/c2ccsc2C(=O)c2c(C)noc21
fractional inhibitory concentration index (FICI) [4]: 0.047

MIC80 [1]: 0.13 µg/mL (≈ 0.593 µM)
MIC80 [3]: 1 µg/mL (≈ 4.56 µM)
MIC80 [5]: 0.031 µg/mL (≈ 0.141 µM)
MIC80 [6]: 2 µg/mL (≈ 9.12 µM)
Papp at 12 h [10]: 7.69 ×10⁻⁶ cm/s
MIC80 [7]: 0.5 µg/mL (≈ 2.28 µM)
Compound: Cc1noc2c1C(=O)c1sccc1C2=O

MIC80 [1]: > 64 µg/mL
MIC80 [2]: 2 µg/mL
MIC80 [3]: > 64 µg/mL
MIC80 [8]: 16 µg/mL (≈ 70.1 µM)
MIC80 [5]: 8 µg/mL (≈ 35.1 µM)
MIC80 [6]: > 64 µg/mL
MIC80 [7]: > 64 µg/mL
MIC80 [9]: 8 µg/mL (≈ 35.1 µM)
Compound: Cc1noc2c1C(=O)c1ccccc1/C2=N/O
fractional inhibitory concentration index (FICI) [4]: 0.063

MIC80 [1]: > 64 µg/mL
MIC80 [2]: 4 µg/mL
MIC80 [3]: > 64 µg/mL
MIC80 [8]: 8 µg/mL (≈ 34.5 µM)
MIC80 [5]: 2 µg/mL (≈ 8.61 µM)
MIC80 [6]: > 64 µg/mL
MIC80 [7]: > 64 µg/mL
MIC80 [9]: 1 µg/mL (≈ 4.31 µM)
Compound: CO/N=C1/c2ccoc2C(=O)c2c(C)noc21
fractional inhibitory concentration index (FICI) [4]: 0.094

MIC80 [1]: > 64 µg/mL
MIC80 [2]: 2 µg/mL
MIC80 [3]: > 64 µg/mL
MIC80 [8]: 4 µg/mL (≈ 16.1 µM)
MIC80 [5]: 0.016 µg/mL (≈ 0.0644 µM)
MIC80 [6]: 16 µg/mL (≈ 64.4 µM)
Papp at 12 h [10]: 8.34 ×10⁻⁶ cm/s
MIC80 [7]: 32 µg/mL (≈ 129 µM)
MIC80 [9]: 0.13 µg/mL (≈ 0.524 µM)
Compound: CO/N=C1/c2ccsc2C(=O)c2c(C)noc21
Activity [11]: 5.02 log10CFU/g
inhibition at 0.125 µg/mL [12]: 40%
Activity [13]: Active
Activity [14]: Active
inhibition at 0.063 µg/mL [15]: > 90%
Activity [16]: 6.22 log10CFU/ml
Activity [17]: Dose-Dependent Effect
Activity [18]: inactive
Activity [19]: 6.13 log10CFU/ml
Activity [20]: inactive
Activity [21]: Active
fractional inhibitory concentration index (FICI) [4]: 0.078
Activity [22]: Active
fold change (FC) [23]: 0.8
Activity [24]: 5.31 log10CFU/g
Activity [25]: Active
Activity [26]: inactive
Activity [27]: 5.73 log10CFU/g
Activity [28]: inactive
Activity [29]: Active
Activity [30]: 7.96 log10CFU/g
Activity [31]: Active
Activity [32]: inactive
Activity [33]: Active
inhibition at 2 µg/mL [34]: 50%
Activity [35]: Active
Activity [36]: Active
Activity [37]: Active
Activity [38]: Active
inhibition at 2 µg/mL [39]: ~30%
Activity [40]: 100%

MIC80 [1]: > 64 µg/mL
MIC80 [2]: 8 µg/mL
MIC80 [3]: > 64 µg/mL
MIC80 [8]: 16 µg/mL (≈ 57.9 µM)
MIC80 [5]: 4 µg/mL (≈ 14.5 µM)
MIC80 [6]: > 64 µg/mL
MIC80 [7]: > 64 µg/mL
MIC80 [9]: 2 µg/mL (≈ 7.24 µM)
Compound: CCCc1noc2c1C(=O)c1sccc1/C2=N/OC
fractional inhibitory concentration index (FICI) [4]: 0.25

MIC80 [41]: 2 µg/mL (≈ 8.61 µM)
MIC80 [42]: 0.5 µg/mL (≈ 2.15 µM)
Compound: O=C1c2ccccc2-c2nccc3ccnc1c23 [SAMPANGINE]
